This is an account of results in US10030047B2 (Hoffmann-La Roche Inc., priority 2015, dated 2018).

SMILES strings stand for the structures. ≈ marks a conversion by molar mass, not a printed value.

The experiment deals with A. baumannii strain ATCC19606. Description: Minimum inhibitory concentration (MIC) determination, microbroth dilution (CLSI). Format: cell-based. The note with it: Acinetobacter baumannii; A. baumannii ATCC19606; CAMHB; read after 20 hours; >=80% growth inhibition; read-out: ATCC19606 MIC. The gist of the method: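 CLSI broth microdilution in cation-adjusted Mueller Hinton broth with twofold compound dilutions and ~5×10^5 CFU/ml inoculum, incubated at 35±2 °C. MIC read after 20 h as lowest concentration inhibiting ≥80% of growth, by eye and OD 600 nm.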
For the molecule `CN1C(=O)[C@H](CCCCN)NC(=O)[C@H](CNC(N)=O)NCc2cccnc2Sc2c(Cl)cc(Cl)cc2CNC(=O)[C@@H]1Cc1c[nH]c2ccccc12` [Example 180, [(11S,14S,17S)-14-(4-Amino-butyl)-23,25-dichloro-17-(1H-indol-3-ylmethyl)-16-methyl-12,15,18-trioxo-2-thia-4,10,13,16,19-pentaaza-tricyclo[19.4.0.0*3,8*]pentacosa-1(25),3(8),4,6,21,23-hexaen-11-ylmethyl]-urea], the MIC was 1 µg/mL (≈ 1.32 µM).

Regarding `Cc1[nH]c2ccccc2c1C[C@H]1C(=O)NCc2cc(-c3ccncc3)cc(Cl)c2Sc2ncccc2CN[C@@H](CCCN)C(=O)N[C@@H](CCCCN)C(=O)N1C` [Example 181, (11S,14S,17S)-14-(4-Amino-butyl)-11-(3-amino-propyl)-25-chloro-16-methyl-17-(2-methyl-1H-indol-3-ylmethyl)-23-pyridin-4-yl-2-thia-4,10,13,16,19-pentaaza-tricyclo[19.4.0.0*3,8*]pentacosa-1(25),3(8),4,6,21,23-hexaene-12,15,18-trione], the minimum inhibitory concentration (MIC) was 0.25 µg/mL (≈ 0.314 µM).

Take `Cc1[nH]c2ccccc2c1C[C@H]1C(=O)NCc2cc(-c3ccnc(Cl)c3)cc(Cl)c2Sc2ncccc2CN[C@@H](CCCN)C(=O)N[C@@H](CCCCN)C(=O)N1C` [Example 182, (11S,14S,17S)-14-(4-Amino-butyl)-11-(3-amino-propyl)-25-chloro-23-(2-chloro-pyridin-4-yl)-16-methyl-17-(2-methyl-1H-indol-3-ylmethyl)-2-thia-4,10,13,16,19-pentaaza-tricyclo[19.4.0.0*3,8*]pentacosa-1(25),3(8),4,6,21,23-hexaene-12,15,18-trione]: the MIC was 0.5 µg/mL (≈ 0.602 µM).

`Cc1[nH]c2ccccc2c1C[C@H]1C(=O)NCc2cc(-c3ccnc(F)c3)cc(Cl)c2Sc2ncccc2CN[C@@H](CCCN)C(=O)N[C@@H](CCCCN)C(=O)N1C` [Example 183, (11S,14S,17S)-14-(4-Amino-butyl)-11-(3-amino-propyl)-25-chloro-23-(2-fluoro-pyridin-4-yl)-16-methyl-17-(2-methyl-1H-indol-3-ylmethyl)-2-thia-4,10,13,16,19-pentaaza-tricyclo[19.4.0.0*3,8*]pentacosa-1(25),3(8),4,6,21,23-hexaene-12,15,18-trione]: the MIC amounted to 0.25 µg/mL (≈ 0.307 µM).

As for `CN1C(=O)[C@H](CCCCN)NC(=O)[C@H](CCC(N)=O)NCc2cccnc2Sc2c(Cl)cc(-c3ccccc3)cc2CNC(=O)[C@@H]1Cc1c[nH]c2ccccc12` [Example 184, 3-[(11S,14S,17S)-14-(4-Amino-butyl)-25-chloro-17-(1H-indol-3-ylmethyl)-16-methyl-12,15,18-trioxo-23-phenyl-2-thia-4,10,13,16,19-pentaaza-tricyclo[19.4.0.0*3,8*]pentacosa-1(25),3(8),4,6,21,23-hexaen-11-yl]-propionamide], the MIC came to 2 µg/mL (≈ 2.51 µM).

Take `CN1C(=O)[C@H](CCCCN)NC(=O)[C@H](CCCN)NCc2cccnc2Sc2c(Cl)cc(C#N)cc2CNC(=O)[C@@H]1Cc1c[nH]c2ccccc12` [Example 185, (11S,14S,17S)-14-(4-Amino-butyl)-11-(3-amino-propyl)-25-chloro-17-(1H-indol-3-ylmethyl)-16-methyl-12,15,18-trioxo-2-thia-4,10,13,16,19-pentaaza-tricyclo[19.4.0.0*3,8*]pentacosa-1(25),3(8),4,6,21,23-hexaene-23-carbonitrile]: the minimal inhibitory concentration (MIC) was found to be 0.5 µg/mL (≈ 0.685 µM).

As to `Cc1noc(C)c1-c1cc(Cl)c2c(c1)CNC(=O)[C@H](Cc1c[nH]c3ccccc13)N(C)C(=O)[C@H](CCCCN)NC(=O)[C@H](CCCN)NCc1cccnc1S2` [Example 186, (11S,14S,17S)-14-(4-Amino-butyl)-11-(3-amino-propyl)-25-chloro-23-(3,5-dimethyl-isoxazol-4-yl)-17-(1H-indol-3-ylmethyl)-16-methyl-2-thia-4,10,13,16,19-pentaaza-tricyclo[19.4.0.0*3,8*]pentacosa-1(25),3(8),4,6,21,23-hexaene-12,15,18-trione], the MIC was 0.5 µg/mL (≈ 0.625 µM).

On to `CN1C(=O)[C@H](CCCCN)NC(=O)[C@H](CCCN)NCc2cccnc2Sc2c(Cl)cc(N3CC4CC3CO4)cc2CNC(=O)[C@@H]1Cc1c[nH]c2ccccc12` (stereo partly drawn) [Example 187, (11S,14S,17S)-14-(4-Amino-butyl)-11-(3-amino-propyl)-25-chloro-17-(1H-indol-3-ylmethyl)-16-methyl-23-(2-oxa-5-aza-bicyclo[2.2.1]hept-5-yl)-2-thia-4,10,13,16,19-pentaaza-tricyclo[19.4.0.0*3,8*]pentacosa-1(25),3(8),4,6,21,23-hexaene-12,15,18-trione], for which the MIC is 2 µg/mL (≈ 2.49 µM).

`CN1C(=O)[C@H](CCCCN)NC(=O)[C@H](CCCN)NCc2cccnc2Sc2c(Cl)cc(C#CCOCc3ccccc3)cc2CNC(=O)[C@@H]1Cc1c[nH]c2ccccc12` [Example 188, (11S,14S,17S)-14-(4-Amino-butyl)-11-(3-amino-propyl)-23-(3-benzyloxy-prop-1-ynyl)-25-chloro-17-(1H-indol-3-ylmethyl)-16-methyl-2-thia-4,10,13,16,19-pentaaza-tricyclo[19.4.0.0*3,8*]pentacosa-1(25),3(8),4,6,21,23-hexaene-12,15,18-trione]: the MIC was 2 µg/mL (≈ 2.35 µM).

Consider `CN1C(=O)[C@H](CCCCN)NC(=O)[C@H](CCCN)NCc2ccccc2Sc2c(-c3ccccc3)ncc(Cl)c2CNC(=O)[C@@H]1Cc1c[nH]c2ccccc12` [Example 189], for which the MIC was 4 µg/mL (≈ 5.12 µM).

With `CN1C(=O)[C@H](CCCCN)NC(=O)[C@H](CCCN)NCc2cccnc2Sc2c(Cl)ccc(-c3ccncc3)c2CNC(=O)[C@@H]1Cc1c[nH]c2ccccc12` [Example 190, (11S,14S,17S)-14-(4-Amino-butyl)-11-(3-amino-propyl)-25-chloro-17-(1H-indol-3-ylmethyl)-16-methyl-22-pyridin-4-yl-2-thia-4,10,13,16,19-pentaaza-tricyclo[19.4.0.0*3,8*]pentacosa-1(21),3,5,7,22,24-hexaene-12,15,18-trione], the MIC was found to be 0.12 µg/mL (≈ 0.153 µM).

Turning to `CN1C(=O)[C@H](CCCCN)NC(=O)[C@H](CCCN)NCc2cccnc2Sc2c(Cl)ccc(-c3cccnc3)c2CNC(=O)[C@@H]1Cc1c[nH]c2ccccc12` [Example 191, (11S,14S,17S)-14-(4-Amino-butyl)-11-(3-amino-propyl)-25-chloro-17-(1H-indol-3-ylmethyl)-16-methyl-22-pyridin-3-yl-2-thia-4,10,13,16,19-pentaaza-tricyclo[19.4.0.0*3,8*]pentacosa-1(25),3(8),4,6,21,23-hexaene-12,15,18-trione], the MIC was determined as 0.12 µg/mL (≈ 0.153 µM).

As to `CN1C(=O)[C@H](CCCCN)NC(=O)[C@H](CCCN)NCc2ccccc2Sc2nc(N3CCOCC3)ccc2CNC(=O)[C@@H]1Cc1c[nH]c2ccccc12` [Example 192], the minimal inhibitory concentration (MIC) amounted to 64 µg/mL (≈ 84.7 µM).

Turning to `CN1C(=O)[C@H](CCCCN)NC(=O)[C@H](CCCN)NCc2ccccc2Sc2ccnc(N3CCOCC3)c2CNC(=O)[C@@H]1Cc1c[nH]c2ccccc12` [Example 193], the MIC stood at 64 µg/mL (≈ 84.7 µM).

Turning to `Cc1[nH]c2ccccc2c1C[C@H]1C(=O)NCc2cc(-c3cncc(S(C)(=O)=O)c3)cc(Cl)c2Sc2ncccc2CN[C@@H](CCCN)C(=O)N[C@@H](CCCCN)C(=O)N1C` [Example 199, (11S,14S,17S)-14-(4-Amino-butyl)-11-(3-amino-propyl)-25-chloro-23-(5-methanesulfonyl-pyridin-3-yl)-16-methyl-17-(2-methyl-1H-indol-3-ylmethyl)-2-thia-4,10,13,16,19-pentaaza-tricyclo[19.4.0.0*3,8*]pentacosa-1(25),3(8),4,6,21,23-hexaene-12,15,18-trione], the minimum inhibitory concentration (MIC) is 1 µg/mL (≈ 1.14 µM).

`Cc1[nH]c2ccccc2c1C[C@H]1C(=O)NCc2c(-c3cccnc3)ccc(Cl)c2Sc2ncccc2CN[C@@H](CCCN)C(=O)N[C@@H](CCCCN)C(=O)N1C` [Example 200, (11S,14S,17S)-14-(4-Amino-butyl)-11-(3-amino-propyl)-25-chloro-16-methyl-17-(2-methyl-1H-indol-3-ylmethyl)-22-pyridin-3-yl-2-thia-4,10,13,16,19-pentaaza-tricyclo[19.4.0.0*3,8*]pentacosa-1(25),3(8),4,6,21,23-hexaene-12,15,18-trione]: the MIC amounted to 0.12 µg/mL (≈ 0.151 µM).

As to `Cc1[nH]c2ccccc2c1C[C@H]1C(=O)NCc2c(-c3ccncc3)ccc(Cl)c2Sc2ncccc2CN[C@@H](CCCN)C(=O)N[C@@H](CCCCN)C(=O)N1C` [Example 202, (11S,14S,17S)-14-(4-Amino-butyl)-11-(3-amino-propyl)-25-chloro-16-methyl-17-(2-methyl-1H-indol-3-ylmethyl)-22-pyridin-4-yl-2-thia-4,10,13,16,19-pentaaza-tricyclo[19.4.0.0*3,8*]pentacosa-1(25),3(8),4,6,21,23-hexaene-12,15,18-trione], the MIC was 0.12 µg/mL (≈ 0.151 µM).

In the case of `Cc1[nH]c2ccccc2c1C[C@H]1C(=O)NCc2cc(-c3ccnc(N4CCN(C)CC4)c3)cc(Cl)c2Sc2ncccc2CN[C@@H](CCCN)C(=O)N[C@@H](CCCCN)C(=O)N1C` [Example 203, (7S,10S,13S)— 10-(4-aminobutyl)-7-(3-aminopropyl)-20-chloro-6,7,9,10,12,13,15,16-octahydro-12-methyl-13-[(2-methyl-1H-indol-3-yl)methyl]-18-[2-(4-methyl-1-piperazinyl)-4-pyridinyl]pyrido[2,3-b][1,5,8,11,14]benzothiatetraazacycloheptadecine-8,11,14(5H)-trione], the MIC was 1 µg/mL (≈ 1.12 µM).

Regarding `CN1C(=O)[C@H](CCCCN)NC(=O)[C@H](CCCN)NCc2cccnc2Sc2cnc(N3CCOCC3)cc2CNC(=O)[C@@H]1Cc1c[nH]c2ccccc12` [Example 204, (7S,10S,13S)-13-((1H-Indol-3-yl)methyl)-10-(4-aminobutyl)-7-(3-aminopropyl)-12-methyl-18-morpholino-6,7,9,10,12,13,15,16-octahydrodipyrido[2,3-b:4′,3′-p][1,5,8,11,14]thiatetraazacycloheptadecine-8,11,14(5H)-trione], the MIC stood at 64 µg/mL (≈ 84.5 µM).
